Molecules are shown by their SMILES. Read-outs that look alike come from different tables or passages of the source.

Holding throughout (format): biochemical
Assay [1] addresses T1, Tyrosine phenol-lyase (TPL) (Morganella morganii, UniProt J7TAF3).
T1 construct: recombinant TPL from M. morganii ssp. morganii (JCM1672), pET-15b
The experiment in a line: recombinant TPL assay, phenol by LC-MS; Lineweaver-Burk kinetics.

The target in assay [2] is T1, Tyrosine phenol-lyase (TPL).
Assay [3] deals with T2, Tyrosine phenol-lyase (TPL) (Citrobacter koseri, UniProt A8AM34).
T2 construct: recombinant TPL from C. koseri (JCM1658), pET-15b
The experiment in a line: recombinant TPL assay at […] inhibitor, phenol by LC-MS.

T1 sequence (J7TAF3 1-456): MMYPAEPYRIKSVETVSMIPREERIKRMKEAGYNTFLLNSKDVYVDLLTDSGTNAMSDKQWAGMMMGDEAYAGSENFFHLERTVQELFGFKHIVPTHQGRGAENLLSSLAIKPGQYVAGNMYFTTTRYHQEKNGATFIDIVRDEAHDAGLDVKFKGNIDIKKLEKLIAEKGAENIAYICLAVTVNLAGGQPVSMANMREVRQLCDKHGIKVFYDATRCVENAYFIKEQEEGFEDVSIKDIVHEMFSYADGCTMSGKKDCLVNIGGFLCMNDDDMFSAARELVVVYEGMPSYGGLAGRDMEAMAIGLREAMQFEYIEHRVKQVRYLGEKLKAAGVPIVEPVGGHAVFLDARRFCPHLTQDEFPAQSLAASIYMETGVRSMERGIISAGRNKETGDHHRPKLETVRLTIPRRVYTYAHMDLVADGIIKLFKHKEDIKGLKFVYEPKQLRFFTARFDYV
T2 sequence (A8AM34 1-465): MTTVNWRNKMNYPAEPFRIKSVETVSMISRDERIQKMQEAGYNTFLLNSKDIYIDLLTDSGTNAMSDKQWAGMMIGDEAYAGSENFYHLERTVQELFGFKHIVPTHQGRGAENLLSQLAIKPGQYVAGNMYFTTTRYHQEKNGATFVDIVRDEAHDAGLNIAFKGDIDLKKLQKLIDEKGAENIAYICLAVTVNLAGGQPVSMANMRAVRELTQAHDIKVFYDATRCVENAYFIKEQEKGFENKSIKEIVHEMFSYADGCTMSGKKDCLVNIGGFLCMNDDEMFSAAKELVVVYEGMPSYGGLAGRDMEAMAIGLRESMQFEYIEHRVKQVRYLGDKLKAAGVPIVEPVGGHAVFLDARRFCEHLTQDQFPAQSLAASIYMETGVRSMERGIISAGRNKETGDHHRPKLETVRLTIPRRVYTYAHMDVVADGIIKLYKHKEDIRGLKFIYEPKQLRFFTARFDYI

As usually defined, the Ki is the equilibrium dissociation constant of an inhibitor or competing ligand from its target. Take `N[C@@H](Cc1ccc(O)cn1)C(=O)O` [2-aza-Tyr]: the Ki in assay [1] (read-out: Ki) was 42 µM. As for `O=c1c(O)c(-c2ccc(O)cc2)oc2cc(O)cc(O)c12` [kaempferol], the “recombinant TPL assay at 500 μM inhibitor, phenol by LC-MS” value in assay [2] is “structural analogs of quercetin, including taxifolin, kaempferol, luteolin, and myricetin, significantly inhibited TPL-catalyzed phenol production”. For the compound `O=c1cc(-c2ccc(O)c(O)c2)oc2cc(O)cc(O)c12` [luteolin], the “recombinant TPL assay at 500 μM inhibitor, phenol by LC-MS” value in assay [2] is “structural analogs of quercetin, including taxifolin, kaempferol, luteolin, and myricetin, significantly inhibited TPL-catalyzed phenol production”. `O=c1c(O)c(-c2ccc(O)c(O)c2)oc2cc(O)cc(O)c12` [quercetin]: in assay [3], the “recombinant TPL assay at 500 μM inhibitor, phenol by LC-MS” value is recorded as “The strongest inhibitory activity of quercetin was confirmed using another recombinant TPL isolated from Citrobacter koseri (JCM1658; Fig. 1B)”. For the same compound, the Ki in assay [1] was determined as 19.9 µM.

Consider `O=C1c2c(O)cc(O)cc2O[C@H](c2ccc(O)c(O)c2)[C@H]1O` [taxifolin], for which the “recombinant TPL assay at 500 μM inhibitor, phenol by LC-MS” value in assay [2] is “structural analogs of quercetin, including taxifolin, kaempferol, luteolin, and myricetin, significantly inhibited TPL-catalyzed phenol production”.

The values are drawn from article PMC11259132, “Tyrosine phenol-lyase inhibitor quercetin reduces fecal phenol levels in mice” (PNAS Nexus, 2024).
